In patent EP3723745B1, “PHENOXY ACIDS FOR THE TREATMENT OF NEUROMUSCULAR DISORDERS” (NMD Pharma A/S, priority 2017, dated 2019):

Columns and labels:
female Lewis rats = test: Measurement of in situ muscle contractile characteristics (isometric hindlimb force, cisatracurium block); assay type: in vivo, rat; settings: for average increase in twitch peaks: 12 Hz; for average increase in twitch peaks / average increase in tetanic force: cisatracurium infusion; for average increase in tetanic force: 80 Hz; for restore force to muscles in vivo: muscles partially inhibited by a neuromuscular blocker, summary in words
Protocol: Isometric hindlimb force was measured in 12-week old female Lewis rats in the presence and absence of compound.
Rats were placed under anesthesia with isoflurane (2-4%), intubated and subsequently connected to a micro ventilator (Microvent 1, Hallowell EMC, US). Two stimulation electrodes were inserted through the skin to stimulate the sciatic nerve. A small incision was made proximal to the ankle, to expose the Achilles tendon, which was tied by cotton string, and connected to a force transducer (Fort250, World Precision Instruments) with adjustable position (Vernier control). The Achilles tendon was then cut distal to the attached cotton string. The rat was placed on a heated pad, and to prevent movement artefacts from contraction of the ankle dorsiflexors, the foot was fixated by tape on a footplate.
Muscle contractile properties were assessed by applying an electrical current (under supramaximal voltage conditions) to the nerve and recording the force generated by the muscle. The muscle was stretched until maximal force was obtained, when assessed by 2 Hz stimulation. Isometric force was measured every 30 seconds at 12 Hz (Twitch), 10 pulses, and at every 5 minutes at 80 Hz (Tetanic) for 1 second (80 pulses). This stimulation pattern was employed throughout the experiment, expect in few cases where 80 Hz stimulation was replaced by 12 Hz (10 pulses). […] When the level of neuromuscular inhibition was stable, the test article was injected i.v. at the chosen concentration. The effect of test article was assessed on its ability to increase force generated from the stimulation pattern applied. The effect was assessed in the ability to increase force per se (tetanic, 80 Hz, stimulation), and the ratio between individual twitch peaks (12 Hz stimulation). The effect was monitored for at least 1 hour after injection of test article. In addition, the time from injection of test article to maximal effect on force (both twitch and tetanic) was noted and the time for the effect to disappear (return to baseline), if possible. When appropriate the infusion of neuromuscular blocking agent was ceased, with the stimulation pattern continued, and the return of force to control levels was monitored. Animals were sacrificed by cervical dislocation while still fully sedated.

human CIC-1 channels = target: T1, human CIC-1 channels (Homo sapiens, UniProt P35523); test: Automated patch-clamp on human CIC-1 expressed in CHO cells; assay type: cell-based; settings: difference in half activation voltage, compound added intracellularly vs control cell patches; positive shift = CIC-1 inhibition
T1 construct: host or cells: CHO cells constitutively expressing human ClC-1
Protocol: The investigatory goal of these experiments was to evaluate how compounds affect the open probability and current amplitude of human CIC-1 channels expressed in CHO cells. Experiments were performed using an automated patch clamp system that allowed high throughput testing of whole cell patches together with both intracellular and extracellular addition of compound.
Automated whole cell patch clamp experiments were performed with the Qpatch 16 system (Sophion Bioscience, Ballerup, Denmark) at room temperature. Data acquisition and analysis were performed in the Qassay software (ver. 5.6, Odense).
To evoke CIC-1 currents in whole cell patches, the membrane potential was initially stepped from a holding potential of -30 mV to +60 mV for 100 ms and then to various test voltages (sweeps) ranging from +120 mV to -140 mV in steps of 20 mV for 300 ms. To obtain tail currents, the membrane potential was stepped to -100 mV after each test voltage for 300 ms and then relaxed to -30 mV for 2 sec between sweeps (Figure 3). I/V relationships for whole cell instant and steady state current amplitudes were obtained by plotting average current densities at the beginning and at the end of the 300 ms step against the membrane potential (Figure 4).
In order to determine the relative overall open probability (P0), the instantaneous tail currents were normalized to the maximal tail current obtained following the most positive voltage step and plotted against the test voltage. Plots of normalized tail currents from each whole cell patch were then fitted to a Boltzmann function allowing determination of half activation voltages (V1/2, Figure 5).
For automated patch clamp experiments extracellular solutions contained: 2 mM CaCl2, 1 mM MgCl2, 10 mM HEPES, 4 mM KCI, 145 mM NaCl, 10 mM Glucose, pH adjusted to 7.4 with NaOH (2 M). Osmolality adjusted to -320 using sucrose.
Intracellular solutions contained: 80 mM CsF, 60 mM CsCI, 5/1 mM KOH/EGTA, 10 mM HEPES, 10 mM NaCl, pH adjusted to 7.2 with NaOH (2 M). Osmolality adjusted to -320 mOsm using sucrose.
Cells used in patch clamp experiments were Chinese hamster ovary cells (CHO) constitutively expressing human CIC-1 channels. The amino acid sequence encoded by the cDNA used to create this cell line was identical to the translated sequence for GenBank accession number NM_000083.2. Cells were produced by Charles River (Catalogue CT6175, Cleveland OH, USA) in a cryopreserved format. Experiments were performed on the cells directly after thawing (3 × 10^6 cells used in each experiment).
To evaluate the compound effect on CIC-1, when applied directly to the intracellular side of the cell membrane, the half activation voltage, V1/2, was determined from whole cell patches with compound added to the intracellular solution and then compared to V1/2 determined from control cell patches with only vehicle added to the intracellular solution. Additionally, the effect of extracellular added compound was evaluated by determine V1/2 and steady state current amplitudes before and after exchanging the extracellular solution to contain compound.
The difference in half activation voltage of CIC-1 channels, ΔV1/2, was determined as the difference between the cell patches treated intracellularly with compound and control cells patches and is reported in Table 4 below. A positive shift in ΔV1/2 is reflecting CIC-1 channel inhibition by the tested compound. P-values of <0.05 is considered significant. […]

T1 sequence (P35523 whole entry): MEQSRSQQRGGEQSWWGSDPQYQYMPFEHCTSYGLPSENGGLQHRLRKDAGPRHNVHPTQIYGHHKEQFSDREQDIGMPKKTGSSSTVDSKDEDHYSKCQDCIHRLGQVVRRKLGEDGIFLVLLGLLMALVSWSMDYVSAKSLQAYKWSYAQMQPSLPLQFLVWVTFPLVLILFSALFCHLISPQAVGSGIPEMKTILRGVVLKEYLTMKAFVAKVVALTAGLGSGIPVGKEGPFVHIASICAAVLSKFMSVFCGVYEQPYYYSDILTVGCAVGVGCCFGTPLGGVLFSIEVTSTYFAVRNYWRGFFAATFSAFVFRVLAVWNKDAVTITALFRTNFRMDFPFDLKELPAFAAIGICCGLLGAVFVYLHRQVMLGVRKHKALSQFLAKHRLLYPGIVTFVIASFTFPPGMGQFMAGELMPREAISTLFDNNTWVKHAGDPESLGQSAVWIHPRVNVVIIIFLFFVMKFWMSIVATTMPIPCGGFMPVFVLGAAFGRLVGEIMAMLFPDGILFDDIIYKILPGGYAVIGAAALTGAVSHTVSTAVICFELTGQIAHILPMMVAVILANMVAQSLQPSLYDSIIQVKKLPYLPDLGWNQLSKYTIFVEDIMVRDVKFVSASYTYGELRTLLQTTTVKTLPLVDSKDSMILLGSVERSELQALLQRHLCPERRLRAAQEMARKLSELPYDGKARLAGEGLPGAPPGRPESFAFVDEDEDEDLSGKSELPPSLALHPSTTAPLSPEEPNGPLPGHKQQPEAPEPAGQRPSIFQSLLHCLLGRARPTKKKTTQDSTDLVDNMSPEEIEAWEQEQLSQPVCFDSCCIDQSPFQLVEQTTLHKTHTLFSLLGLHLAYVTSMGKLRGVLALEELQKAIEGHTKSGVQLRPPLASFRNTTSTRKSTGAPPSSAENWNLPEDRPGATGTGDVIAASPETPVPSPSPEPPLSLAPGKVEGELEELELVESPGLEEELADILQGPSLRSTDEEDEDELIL

| SMILES | average increase in twitch peaks (female Lewis rats; 40 mg/kg i.v.) [%] | average increase in tetanic force (female Lewis rats; 40 mg/kg i.v.) [%] | restore force to muscles in vivo (female Lewis rats) | ΔV1/2 (human CIC-1 channels) [mV] | average increase in twitch peaks (female Lewis rats; 20 mg/kg i.v.) [%] | average increase in tetanic force (female Lewis rats; 20 mg/kg i.v.) [%] | average increase in twitch peaks (female Lewis rats; 42 mg/kg i.v.) [%] | average increase in tetanic force (female Lewis rats; 42 mg/kg i.v.) [%] |
| --- | --- | --- | --- | --- | --- | --- | --- | --- |
| CC(C)[C@H](Oc1ccc(Br)cc1F)C(=O)O [Compound A-27, (2S)-2-(4-bromo-2-fluorophenoxy)-3-methylbutanoic acid] | 12.2 | 36.4 | can restore force | 20.2 |  |  |  |  |
| [2H][C@@](CC)(Oc1ccc(Br)cc1)C(=O)O [Compound A-60, (2S)-2-(4-bromophenoxy)(2-^2H)butanoic acid] |  |  | can restore force | 20.0 | 18.5 | 52.7 |  |  |
| O=C(O)[C@H](CCF)Oc1ccc(Br)cc1 [Compound A-87, (2S)-2-(4-bromophenoxy)-4-fluorobutanoic acid] |  |  | can restore force | 16.4 |  |  | 5.8 | 19.3 |
